Converted amounts (≈) assume the structure as drawn.
Legend:
[1] = test system: KB cell line derived from human nasopharyngeal carcinoma; assay: 50% inhibitory concentration against KB cell line (growth inhibition, trypan blue viable count); assay type: cell-based; details: 72 h, incubation for 3 days, 37° C., trypan blue dye exclusion
Method: A. Determination of 50% inhibitory concentration against the established culture cell line derived from human nasopharyngeal carcinoma:
A 50% inhibitory concentration (IC50) of the compound according to the present invention against an established culture cell line (KB cell line) derived from human nasopharyngeal carcinoma was determined. More specifically, the KB cell line (2×10^3 cells/ml of medium) was cultured in an Eagle's minimal essential medium supplemented with a 10% calf serum, and 3 ml of this culture medium was incubated in a plastic Petri dish to incubate it at 37° C. in a CO2 -incubator (5% CO2). After overnight incubation, the compound according to the present invention was added with the compound diluted from a concentration of 1 μg/ml to a concentration of 1×10^-6 μg/ml by 10-fold dilution.

[2] = test system: Bacillus cereus IFO 3001; assay: Antibacterial MIC (agar dilution); assay type: cell-based; details: IFO3001, Muller-Hinton agar, 37° C., 18 hours, 10^6 cells/ml
Method: (§1) (1) Determination of antibacterial activities of the substance IT-62-B:
(§2) Minimum inhibitory concentrations (MICs) of the compound according to the present invention against various bacteria were determined in accordance with the MIC measurement method of Japan Society of Chemotherapy (see journal of Chemotherapy, Vol. 29, No. 1, pp. 76-79, 1981). More specifically, Muller-Hinton agar media (product of Difco Co.) containing the compound according to the present invention at various concentrations were used. The test organisms diluted to 10^6 cells/ml, respectively, were inoculated said test organisms having been grown on the same medium as described above.

[3] = test system: Pseudomonas aeruginosa NCTC 10490; assay: Antibacterial MIC (agar dilution); assay type: cell-based; details: NCTC10490, Muller-Hinton agar, 37° C., 18 hours, 10^6 cells/ml
Method: as §1, §2

[4] = test system: Alcaligenes faecalis IAM 1015; assay: Antibacterial MIC (agar dilution); assay type: cell-based; details: IAM1015, Muller-Hinton agar, 37° C., 18 hours, 10^6 cells/ml
Method: as §1, §2

[5] = test system: Bacillus subtilis ATCC(rec^+); assay: Antibacterial MIC (agar dilution); assay type: cell-based; details: Muller-Hinton agar, 37° C., 18 hours, 10^6 cells/ml
Method: as §1, §2

[6] = test system: Micrococcus luteus ATCC 10240; assay: Antibacterial MIC (agar dilution); assay type: cell-based; details: ATCC10240, Muller-Hinton agar, 37° C., 18 hours, 10^6 cells/ml
Method: as §1, §2

[7] = test system: Bacillus subtilis ATCC 6633; assay: Antibacterial MIC (agar dilution); assay type: cell-based; details: ATCC6633, Muller-Hinton agar, 37° C., 18 hours, 10^6 cells/ml
Method: as §1, §2

[8] = test system: Escherichia coli IAM 1268; assay: Antibacterial MIC (agar dilution); assay type: cell-based; details: IAM1268, Muller-Hinton agar, 37° C., 18 hours, 10^6 cells/ml
Method: as §1, §2

[9] = test system: Staphylococcus aureus (MRSA)70; assay: Antibacterial MIC (agar dilution); assay type: cell-based; details: 18 h
Method: as §1, §2

[10] = test system: Enterococcus faecalis IFO 12968; assay: Antibacterial MIC (agar dilution); assay type: cell-based; details: IFO12968, Muller-Hinton agar, 37° C., 18 hours, 10^6 cells/ml
Method: as §1, §2

[11] = test system: Staphylococcus aureus (MRSA)92-1192; assay: Antibacterial MIC (agar dilution); assay type: cell-based; details: 18 h
Method: as §1, §2

[12] = test system: Bacillus subtilis ATCC(rec^-); assay: Antibacterial MIC (agar dilution); assay type: cell-based; details: Muller-Hinton agar, 37° C., 18 hours, 10^6 cells/ml
Method: as §1, §2

[13] = test system: Salmonella typhymurium G-46; assay: Antibacterial MIC (agar dilution); assay type: cell-based; details: G46, Muller-Hinton agar, 37° C., 18 hours, 10^6 cells/ml
Method: as §1, §2

[14] = test system: Escherichia coli NIHJ; assay: Antibacterial MIC (agar dilution); assay type: cell-based; details: Muller-Hinton agar, 37° C., 18 hours, 10^6 cells/ml
Method: as §1, §2

[15] = test system: Staphylococcus epidermidis ATCC 12228; assay: Antibacterial MIC (agar dilution); assay type: cell-based; details: ATCC12228, Muller-Hinton agar, 37° C., 18 hours, 10^6 cells/ml
Method: as §1, §2

[16] = test system: Proteus vulgaris IID OX-19; assay: Antibacterial MIC (agar dilution); assay type: cell-based; details: IIDOX19, Muller-Hinton agar, 37° C., 18 hours, 10^6 cells/ml
Method: as §1, §2

[17] = test system: Micrococcus luteus ATCC 9341; assay: Antibacterial MIC (agar dilution); assay type: cell-based; details: ATCC9341, Muller-Hinton agar, 37° C., 18 hours, 10^6 cells/ml
Method: as §1, §2

[18] = test system: Staphylococcus aureus Smith; assay: Antibacterial MIC (agar dilution); assay type: cell-based; details: Muller-Hinton agar, 37° C., 18 hours, 10^6 cells/ml
Method: as §1, §2

[19] = test system: Klebsiella pneumoniae ATCC 29665; assay: Antibacterial MIC (agar dilution); assay type: cell-based; details: ATCC29665, Muller-Hinton agar, 37° C., 18 hours, 10^6 cells/ml
Method: as §1, §2

[20] = test system: Serratia marcescens IFO 12648; assay: Antibacterial MIC (agar dilution); assay type: cell-based; details: IFO12648, Muller-Hinton agar, 37° C., 18 hours, 10^6 cells/ml
Method: as §1, §2

[21] = test system: murine leukemia P388 cells; assay: Survival effect against murine leukemia P388 cells implanted intraperitoneally; assay type: in vivo, mouse (male CDF1); details: 0.25 mg/kg intraperitoneally, 1 day after i.p. implantation of 1×10^6 P388 cells, male CDF1 mice
Source text: B. Survival effect against murine leukemia P388 cells implanted intraperitoneally:
The antitumor activity of the compound according to the present invention was judged by the survival effect against murine leukemia (p388 cells). The three of Male CDF1 mice (aged 6 weeks) were used as test animals for an administering group and 10 mice for an untreating control group. Murine leukemia P388 cells (1×10^6 cells) were implanted intraperitoneally in all the mice. Upon elapsed time of 1 day (the first day) after the implantation, the substance IT-62-B dissolved in a 3.5% solution of dimethyl sulfoxide in physiological saline was administered intraperitoneally to the mice of the administering group at a dose of 0.25 mg/kg so as to observe survival days of the mice. […] [formula]

Q: With `COc1cccc2c1C(=O)c1c(O)c3c(c(O)c1C2=O)CC(O)(C(C)=O)CC3OC1CC2C(OC(CC(C)O)OC(C)C3OC(C(C)CO)C(=O)N23)C(C)O1` (stereo not drawn) [IT-62-B] as the compound, how does the IC50 [1] read?
A: 0.006 µg/mL (≈ 0.00779 µM)

Q: And the MIC [2]?
A: 12.5 µg/mL (≈ 16.2 µM)

Q: What about the MIC [3] of the same compound?
A: > 100 µg/mL

Q: What about the MIC [4] of the same compound?
A: 12.5 µg/mL (≈ 16.2 µM)

Q: And the MIC [5]?
A: 6.25 µg/mL (≈ 8.12 µM)

Q: And the MIC [6]?
A: 1.56 µg/mL (≈ 2.03 µM)

Q: And the MIC [7]?
A: 3.13 µg/mL (≈ 4.07 µM)

Q: What about the MIC [8] of the same compound?
A: 50 µg/mL (≈ 65 µM)

Q: And the MIC [9]?
A: 12.5 µg/mL (≈ 16.2 µM)

Q: And the MIC [10]?
A: 50 µg/mL (≈ 65 µM)

Q: What about the MIC [11] of the same compound?
A: 12.5 µg/mL (≈ 16.2 µM)

Q: What about the MIC [12] of the same compound?
A: 0.39 µg/mL (≈ 0.507 µM)

Q: And the MIC [13]?
A: > 100 µg/mL

Q: What about the MIC [14] of the same compound?
A: 100 µg/mL (≈ 130 µM)

Q: And the MIC [15]?
A: 25 µg/mL (≈ 32.5 µM)

Q: And the MIC [16]?
A: > 100 µg/mL

Q: And the MIC [17]?
A: 3.13 µg/mL (≈ 4.07 µM)

Q: What about the MIC [18] of the same compound?
A: 6.25 µg/mL (≈ 8.12 µM)

Q: And the MIC [19]?
A: > 100 µg/mL

Q: What about the MIC [20] of the same compound?
A: > 100 µg/mL

Q: What about the “Percent increase in survival” value [21] of the same compound?
A: 119%

— patent US5698528A, “Substance IT-62-B and medicinal composition containing the same” (Taiho Pharmaceutical Co., Ltd., priority 1994, dated 1997)
